Source: publication PMC5653735, “Comparison of the oxidation of carcinogenic aristolochic acid I and II by microsomal cytochromes P450 in vitro: experimental and theoretical approaches” (Monatshefte Fur Chemie, 2017)

Molecular target: T1, CYP3A1 (Rattus norvegicus, UniProt P04800)
T1 construct: recombinant rat CYP3A1 in Supersomes (microsomes of baculovirus-transfected insect cells); with NADPH:CYP oxidoreductase (POR) and/or cytochrome b5
T1 sequence (P04800 1-504): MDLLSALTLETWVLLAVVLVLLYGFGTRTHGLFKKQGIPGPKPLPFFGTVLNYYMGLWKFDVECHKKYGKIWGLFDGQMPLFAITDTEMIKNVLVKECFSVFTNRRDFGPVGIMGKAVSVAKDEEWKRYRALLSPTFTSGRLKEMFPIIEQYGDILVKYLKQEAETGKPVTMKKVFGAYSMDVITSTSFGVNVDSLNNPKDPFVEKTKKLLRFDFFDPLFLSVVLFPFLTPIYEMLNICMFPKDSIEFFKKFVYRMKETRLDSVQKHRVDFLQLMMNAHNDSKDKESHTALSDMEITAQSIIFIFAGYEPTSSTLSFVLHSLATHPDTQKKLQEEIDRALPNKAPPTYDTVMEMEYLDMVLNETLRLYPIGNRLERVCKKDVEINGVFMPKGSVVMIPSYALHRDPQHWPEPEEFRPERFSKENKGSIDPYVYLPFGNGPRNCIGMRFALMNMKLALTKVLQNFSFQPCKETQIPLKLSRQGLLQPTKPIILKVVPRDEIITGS
Assay: HPLC of AAIa formed from AAII by recombinant CYP in insect-cell microsomes
Type: cell-based

With `O=C(O)c1cc2c(c3c1c([N+](=O)[O-])cc1ccccc13)OCO2` [AAII, 6-nitrophenanthro[3,4-d]-1,3-dioxole-5-carboxylic acid] the “HPLC of AAIa formed from AAII by recombinant CYP in insect-cell microsomes” value was “only rat CYP of the 3A subfamily, CYP3A1, but not CYP3A2, was capable of oxidizing AAII to AAIa”.
